# Results reported in patent US12281304B2, “Compositions and methods for treating and preventing muscular disorders and dystrophies, steroid side effects, and inflammation” (Children's National Medical Center, priority 2018, dated 2025).
# Tested on: miRNAs in diaphragm muscle of mdx mice
# Experiment: TaqMan low-density array (TLDA) miRNA profiling of diaphragm, discovery set (prophylactic mdx trial)
# Assay type: in vivo, mouse
# Conditions: mdx diaphragm, vs untreated mdx; Pred 5 mg/kg, Vam 15 mg/kg
# Excerpt: Archival muscle samples (diaphragm) from two separate preclinical studies were obtained, with each trial showing a significant benefit from both prednisolone and vamorolone drug treatments (23). Prednisolone was used because it is the active form of prednisone, the current DMD standard of care. The first, “discovery set” of diaphragm muscles was from a prophylactic trial design where 2-week old (postnatal day 15) mdx or wild type control mice received oral dosing for 6 weeks with vehicle (cherry syrup), prednisolone (5 mg/kg), or vamorolone (15 mg/kg) as previously reported (23). The second, “validation set” of diaphragm muscles was from an extended trial in older mice where mdx or wild type mice were subjected to treadmill running to unmask mild phenotypes. Mice in this validation set were treated with either vehicle, prednisolone (5 mg/kg) or vamorolone (45 mg/kg) for four months beginning at two months of age (23). At the endpoint of each trial, diaphragm muscles were harvested and frozen in liquid nitrogen-cooled isopentane.
# We extracted total RNA from 5 diaphragm muscles per treatment group in the discovery set of samples from 8-week old mice. RNA was extracted using a modified TRIzol protocol with isopropanol precipitation at −20° C. overnight. This RNA was reverse transcribed to cDNA using a High Capacity cDNA Reverse Transcription Kit with RNase Inhibitor (ThermoFisher; Carlsbad, Calif.), with miRNA-specific Megaplex RT Primers, Rodent Pools Set version 3.0 (ThermoFisher; Carlsbad, Calif.). Levels of each of the miRNAs were profiled in the discovery set using TAQMAN Array Rodent MiRNA A+B Cards Set v3.0 (ThermoFisher; Carlsbad, Calif.).
# In the discovery set experiments, levels of each miRNA were quantified in TaqMan low-density arrays using ThermoFisher Cloud software with the Relative Quantification Application (ThermoFisher; Carlsbad, Calif.) tool. Data was analyzed by ANOVA with post-hoc comparison of each group to the mdx vehicle-treated group. […] A P-value of P≤0.05 was set as the significance threshold, without adjustment for multiple comparisons. To reduce false-positive discovery in this setting, an evidence-based approach was used to identify efficacy associated miRNAs where 1) results from the multiple groups were cross-referenced, and 2) all candidate miRNAs identified in this discovery set were then assayed in a separate validation set of mice. For the validation set experiments, levels of each individual miRNA were assayed in samples from a second, independent preclinical trial in adult mdx mice. Data from individual TaqMan Assays was quantified using QuantStudio Real-Time PCR version 1.3 software (Applied Biosystems; Foster City, Calif.). The levels of all miRNAs were normalized to the geometric mean of multiple control genes (60, 70). Comparison of groups was made by ANOVA with Holm-Sidak post-hoc test comparing each group to mdx vehicle.
# To visualize behavior of miRNAs within individual mice for each group, heat map images were generated. Heat maps were generated using Rq values of TLDA array data exported from the Relative Quantification Application of the ThermoFisher Cloud software (ThermoFisher; Carlsbad, Calif.) tool. Heat maps of miRNA expression were produced using Hierarchical Clustering Explorer Version 3.5 (at www.cs.umd.edu/hcil/multi-cluster/) produced by the Human Computer Interaction Laboratory (University of Maryland; College Park, Md.).
# To examine miRNA expression TaqMan low density qPCR array cards were used to profile approximately 750 miRNAs within diaphragm muscle from a discovery set of mice. Samples for this experiment came from a trial that utilized a prophylactic approach (23). Briefly, mdx mice undergo a stage of peak severity characterized by widespread inflammation and necrosis from approximately 3-8 weeks of age, followed by a recovery stage where mice show milder phenotypes (25). […]
smiles,measurement,value
C[C@]12C=CC(=O)C=C1CC[C@@H]1[C@@H]2[C@@H](O)C[C@@]2(C)[C@H]1CC[C@]2(O)C(=O)CO [prednisolone],Rq mmu-miR-214-002306,0.898
same,Rq mmu-miR-215-001200,0.792
same,Rq mmu-miR-218-000521,0.615
same,Rq mmu-miR-221-000524,0.687
same,Rq mmu-miR-222-002276,0.666
same,Rq mmu-miR-223-002295,0.804
same,Rq mmu-miR-296-5p-000527,1.035
same,Rq mmu-miR-301a-000528,0.687
same,Rq mmu-miR-301b-002600,0.862
same,Rq mmu-miR-322-001076,0.67
same,Rq mmu-miR-324-3p-002509,0.713
same,Rq mmu-miR-324-5p-000539,0.859
same,Rq mmu-miR-328-000543,0.888
same,Rq mmu-miR-335-3p-002185,1.354
same,Rq mmu-miR-335-5p-000546,0.756
same,Rq mmu-miR-337-3p-002532,0.853
same,Rq mmu-miR-338-3p-002252,0.469
same,Rq mmu-miR-339-5p-002257,0.652
same,Rq mmu-miR-340-3p-002259,0.581
same,Rq mmu-miR-340-5p-002258,0.602
same,Rq mmu-miR-342-3p-002260,0.407
same,Rq mmu-miR-342-5p-002527,0.529
same,Rq mmu-miR-345-5p-002528,0.713
same,Rq mmu-miR-350-002530,0.796
same,Rq mmu-miR-362-3p-002616,0.936
same,Rq mmu-miR-362-5p-002614,1.241
same,Rq mmu-miR-369-3p-000557,1.192
same,Rq mmu-miR-369-5p-001021,1.211
same,Rq mmu-miR-370-002275,1.975
same,Rq mmu-miR-376a#-002482,1.351
same,Rq mmu-miR-376a-001069,1.484
same,Rq mmu-miR-376b#-002451,1.084
same,Rq mmu-miR-376b-002452,1.602
same,Rq mmu-miR-376c-002450,0.966
same,Rq mmu-miR-379-001138,1.085
same,Rq mmu-miR-380-5p-002601,1.287
same,Rq mmu-miR-381-000571,1.359
same,Rq mmu-miR-382-000572,1.017
same,Rq mmu-miR-383-001767,0.551
same,Rq mmu-miR-384-5p-002602,0.618
same,Rq mmu-miR-409-3p-002332,1.906
same,Rq mmu-miR-410-001274,1.676
same,Rq mmu-miR-411-001610,1.171
same,Rq mmu-miR-431-001979,1.819
same,Rq mmu-miR-433-001028,2.288
same,Rq mmu-miR-434-5p-002581,1.271
same,Rq mmu-miR-450a-5p-002303,1.051
same,Rq mmu-miR-455-002455,0.612
same,Rq mmu-miR-467F-002886,1.346
same,Rq mmu-miR-467a-002587,0.751
same,Rq mmu-miR-467c-002517,0.992
same,Rq mmu-miR-483#-002560,1.367
same,Rq mmu-miR-486-001278,0.917
same,Rq mmu-miR-487b-001285,1.43
same,Rq mmu-miR-489-001302,0.792
same,Rq mmu-miR-491-001630,0.776
same,Rq mmu-miR-493-002519,2.641
same,Rq mmu-miR-494-002365,1.025
same,Rq mmu-miR-495-001663,1.448
same,Rq mmu-miR-497-001346,0.482
same,Rq mmu-miR-500-002606,0.935
same,Rq mmu-miR-501-3p-001651,0.97
same,Rq mmu-miR-503-002456,0.923
same,Rq mmu-miR-511-002549,0.48
same,Rq mmu-miR-532-3p-002355,1.067
same,Rq mmu-miR-532-5p-001518,1.087
same,Rq mmu-miR-540-3p-001310,0.908
same,Rq mmu-miR-541-002562,1.165
same,Rq mmu-miR-542-3p-001284,1.123
same,Rq mmu-miR-542-5p-002563,0.96
same,Rq mmu-miR-543-001298,2.644
same,Rq mmu-miR-543-002376,1.81
same,Rq mmu-miR-544-002550,1.001
same,Rq mmu-miR-574-3p-002349,0.667
same,Rq mmu-miR-652-002352,0.626
same,Rq mmu-miR-665-002607,1.683
same,Rq mmu-miR-669a-001683,0.678
same,Rq mmu-miR-673-3p-002449,1.562
same,Rq mmu-miR-673-001954,2.031
same,Rq mmu-miR-674#-001956,0.857
same,Rq mmu-miR-674-002021,0.846
same,Rq mmu-miR-675-3p-001941,1.258
same,Rq mmu-miR-682-001666,0.702
same,Rq mmu-miR-690-001677,0.744
same,Rq mmu-miR-706-001641,0.75
same,Rq mmu-miR-708-002341,0.636
same,Rq mmu-miR-720-001629,0.905
same,Rq mmu-miR-802-002029,0.245
same,Rq mmu-miR-805-002045,1.066
same,Rq mmu-miR-1274a-121150_mat,1.138
same,Rq mmu-miR-1941-3p-121130_mat,2.166
same,Rq mmu-miR-1943-121174_mat,0.831
same,Rq mmu-miR-1944-121189_mat,0.877
same,Rq mmu-miR-2146-241082_mat,1.113
same,Rq mmu-miR-30d-000420,0.701
same,Rq rno-miR-1-002064,0.911
same,Rq rno-miR-7#-001338,0.751
same,Rq rno-miR-7a#-002062,0.863
same,Rq rno-miR-20b-001326,0.491
same,Rq rno-miR-29c#-001818,0.826
same,Rq rno-miR-204#-002076,0.729
same,Rq rno-miR-224-000599,1.144
same,Rq rno-miR-345-3p-002061,0.859
same,Rq rno-miR-351-002063,1.366
same,Rq rno-miR-379#-002081,1.563
same,Rq rno-miR-381-001322,1.107
same,Rq rno-miR-489-001353,0.626
same,Rq rno-miR-664-001323,0.638
